Holding throughout (test): DTP human tumour cell line panel, 48 h
In assay [1] the test system is IGROV1 ovarian.
Assay [2] relates to COLO 205 colon.
The test system of assay [3] is KM12 colon.
The subject of assay [4] is SW-620 colon.
The subject of assay [5] is UO-31 renal.
In assay [6] the test system is NCI-H23 lung.
Assay [7] deals with OVCAR-5 ovarian.
Assay [8] concerns OVCAR-8 ovarian.
Assay [9] deals with CCRF-CEM leukemia.

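How tested: cells in 96-well plates exposed to compound for 48 hours at five concentrations. The concentration for 50% growth inhibition is given as GI50. TGI denotes the concentration required for complete inhibition of growth.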

As a reminder, the TGI is the concentration giving total growth inhibition. The low end stands for more potent growth arrest, the high end for less potent growth arrest. A word on the GI50: it is the concentration that inhibits growth by half.

Turning to `COC(=O)C1=C(O)C(O)=C(C(=O)OC)C1`, the TGI in assay [1], in [2], in [3], in [4], in [5] and in [6] was above 100 µM in each case. For the same compound, the TGI in assay [7], in assay [8] and in [9] was above 100 µM in each case.

Turning to `COc1ccc2ccc([Se]c3ccc4ccc(OC)cc4c3)cc2c1`, the TGI in assay [1] was above 100 µM; in assay [2] it was above 100 µM; in [3] it was above 100 µM; in assay [4], above 100 µM; in assay [5], 95.8 µM; in [6], above 100 µM. Besides, the TGI in assay [8] was 98.2 µM; in assay [9] it was above 100 µM.

`COc1ccc(/C=C2/C[N+](C)(C)C/C(=C/c3ccc(OC)cc3)C2=O)cc1`: the TGI in assay [1] was 64.7 µM; in [2], 40.8 µM; in assay [3], 36.3 µM; in [4], above 100 µM; in assay [5], above 100 µM; in assay [6], above 100 µM. Besides, the TGI was above 100 µM in assay [7], above 100 µM in assay [8] and above 96.1 µM in assay [9].

Take `Cc1cc(C)nc(Nc2nc3ccc([N+](=O)[O-])cc3[nH]2)n1`: the TGI in assay [1], in assay [2], in assay [3], in [4], in [5] and in assay [6] was above 100 µM each time. In addition, the TGI in assay [7], in assay [8] and in [9] was above 100 µM throughout.

Regarding `CCOC(=O)c1ccc(N2C(=O)/C(=C\OC)c3ccccc3C2=O)cc1`, the TGI was above 100 µM in assay [1]; above 100 µM in [2]; above 100 µM in [3]; above 100 µM in assay [4]; 62.8 µM in [5]; above 100 µM in assay [6]. For the same compound, the TGI in assay [7] and in assay [8] was above 100 µM each time.

Turning to `C=C1CC[C@@H]2C(C)(C)CCC[C@@]2(C)[C@@H]1Cc1cc(O)ccc1O`, the TGI in assay [1] worked out at 5.65 µM; in [2], 31.4 µM; in assay [3], 19.2 µM; in [4], 23.8 µM; in [5], 5.25 µM; in [6], 18.7 µM. Also, the TGI in assay [7] is 31.3 µM; in assay [8], 15.1 µM; in assay [9] it was 5.23 µM.

As for `CCOC(=O)CC1=CSC2=NCCN12`, the total growth inhibition concentration (TGI) in [1], in [2], in [3], in assay [4], in assay [5] and in assay [6] was above 100 µM in each case. For the same compound, the TGI in [7], in [8] and in assay [9] was above 100 µM throughout.

For `CC(=O)Nc1ccc(C2[C@H]3C(=O)N(c4ccc(Cc5ccc(N6C(=O)[C@@H]7ON(c8ccccc8)C(c8ccc(NC(C)=O)cc8)[C@@H]7C6=O)cc5)cc4)C(=O)[C@H]3ON2c2ccccc2)cc1` (stereo not given in full), the TGI in [1], in assay [2], in assay [3], in assay [4], in [5] and in [6] was above 100 µM throughout. In addition, the TGI in [7], in assay [8] and in [9] was above 100 µM throughout.

Regarding `c1ccc(N=C2c3ccccc3C3=NCCCN32)cc1`, the TGI in assay [1], in assay [2], in [3], in [4], in [5] and in assay [6] was above 100 µM each time. The TGI in assay [7], in assay [8] and in [9] was above 100 µM in each case.

For the compound `COC(=O)c1ccc(N=NN(C)CO)cc1`, the TGI in assay [1], in assay [2], in assay [3], in assay [4], in assay [5] and in [6] was above 100 µM throughout. The TGI in [7], in [8] and in assay [9] was above 100 µM throughout.

With `O=C([CH-]C(=O)c1ccccc1)c1ccccc1.O=C([CH-]C(=O)c1ccccc1)c1ccccc1.[Nd+3].[OH-].[OH3+]`, the GI50 in assay [1] is 11.5 µM; in assay [2], 13.9 µM; in [3], 6.27 µM; in assay [4], 6.89 µM; in assay [5] it was 3.11 µM; in [6], 3.91 µM. Also, the GI50 in assay [7] was 22.3 µM; in assay [8], 4.74 µM. Moreover, the TGI was found to be 61.2 µM in assay [1]; 31.4 µM in assay [2]; 49.6 µM in assay [3]; 39.8 µM in assay [4]; 12.4 µM in assay [5]; 18.6 µM in [6]. For the same compound, the values for the TGI in assay [7] and in assay [8] were 81.5 µM and 38.4 µM, respectively.

Take `CC(c1cccc2ccccc12)/[N+]([O-])=C/c1ccccc1` (stereo not given): the TGI in [1], in assay [2], in assay [3], in [4], in assay [5] and in assay [6] was above 100 µM in each case. Also, the TGI in assay [7], in [8] and in [9] was above 100 µM each time.

As for `CS(=O)c1ccc(COP(N)(=O)N(CCCl)CCCl)cc1` (stereo not given), the TGI in assay [1], in assay [2], in [3], in [4], in assay [5] and in [6] was above 100 µM in each case. The TGI in assay [7], in assay [8] and in assay [9] was above 100 µM in each case.

For the compound `CC[N+](CC)(CC)CCCn1c2c(c3ccccc3c1=O)C(=O)c1ccccc1-2`, the GI50 in [1] is 3.1 µM; in [2] it was 23.1 µM; in assay [3] it was 4.74 µM; in [4] it was 4.24 µM; in [6] it was 2.31 µM; in assay [7], 16.5 µM. The GI50 in assay [8] is 3.66 µM; in assay [9], 2.99 µM. The TGI was 24.1 µM in assay [1]; above 100 µM in assay [2]; above 100 µM in [3]; above 100 µM in assay [4]; 6.42 µM in [6]; 48.6 µM in assay [7]. Moreover, the TGI in assay [8] worked out at 22.8 µM; in [9], 23.6 µM.

On to `Cc1c2cc[nH]c(=O)c2cc2c(=O)c3cnccc3[nH]c12`, for which the TGI in assay [1], in assay [2], in [3], in assay [4], in [5] and in [6] was above 100 µM each time. Besides, the TGI in [7], in assay [8] and in [9] was above 100 µM throughout.

On to `O=C(O)c1cc2c(cn1)[nH]c1ccccc12`, for which the TGI in assay [1], in assay [2], in assay [3], in assay [4], in assay [5] and in [6] was above 100 µM in each case. In addition, the TGI in [7], in [8] and in assay [9] was above 100 µM in each case.

As for `ON=C1CCC(c2ccccc2)CC1` (stereo not given), the TGI in [1], in assay [2], in assay [3], in [4], in assay [5] and in [6] was above 100 µM in each case. The TGI in assay [7], in assay [8] and in assay [9] was above 100 µM each time.

Take `O=c1cc2ccccc2nn1-c1ccccc1Cl`: the TGI in assay [1] was above 100 µM; in assay [2], above 100 µM; in assay [3], above 100 µM; in assay [4] it was above 100 µM; in [5] it was 96.6 µM; in [6] it was above 100 µM. Besides, the TGI in assay [7], in assay [8] and in assay [9] was above 100 µM throughout.

Turning to `CCOC(=O)C(C)c1cc(C2(C)OCCO2)c(C)o1` (stereo not given), the TGI in [1], in [2], in assay [3], in [4], in assay [5] and in assay [6] was above 100 µM in each case. In addition, the TGI in [7], in assay [8] and in [9] was above 100 µM in each case.

Turning to `O=C(c1ccccc1)c1c(C(=O)c2ccccc2)c(-c2ccccc2)c2c(-c3ccccc3)sc(-c3ccccc3)c2c1-c1ccccc1`, the TGI in assay [1], in [2], in assay [3], in [4], in [5] and in assay [6] was above 100 µM each time. Moreover, the TGI in assay [7], in assay [8] and in assay [9] was above 100 µM each time.

`O=S1(=O)C[C@@H](O)[C@H](O)CS1`: the TGI in assay [1], in [2], in assay [3], in [4], in assay [5] and in [6] was above 100 µM throughout. Besides, the TGI in assay [7] and in assay [8] was above 100 µM throughout.

The values above are taken from PubChem BioAssay (NCI).
